Assay [1] can be described thus: Body weight of rats in 1.5-hour ischemia/reperfusion model. The format is in vivo, Sprague-Dawley (SD) rats. To be noted: 3.6 mg/kg i.p. once a day. The method, then: (§1) Sprague-Dawley (SD) rats, male, weighing 280-320 g, clean, feeding, conditions: room temperature of 20-25° C., humidity of 30-60%, well ventilated, ad libitum diet; the animals were acclimatized in the feeding environment for three days prior to the experiment.
(§2) The rats were anesthetized with 4% chloral hydrate (350 mg/kg, ip.) and then were fixed in a supine position. A midline ventral neck incision was made, the right common carotid artery was separated and snared with two sutures for further use. Then, the internal carotid artery and external carotid artery were separated, and the external carotid artery was ligatured. The separated common carotid artery was ligatured at its proximal end with a thread, and the blood flow of the same was blocked at its distal end with a bulldog clamp. A small opening was cut therebetween and a nylon suture (4-0) which is heated at one end into a bead-like shape (having a diameter of <0.3 mm) was inserted into the small opening. The bulldog clamp was removed, and the nylon suture was gently advanced to the origin of the anterior cerebral artery (18-20 mm), thereby causing arterial ischemia in brain by blocking the blood supply of the cerebral artery. The skin was sutured and was sterilized with tincture of iodine. […]

Assay [2] deals with right cerebral artery ischemia/reperfusion model in rats. Briefly: Neurologic deficit score in rat 1.5-hour ischemia/reperfusion model. Type of assay: in vivo, Sprague-Dawley (SD) rats. As to conditions: 3.6 mg/kg i.p. once a day, vs model group without compound. The method, then: as §1
as §2, with “opening.” for “opening. The bulldog clamp was removed, and the nylon suture was gently advanced to the origin of the anterior cerebral artery (18-20 mm), thereby causing arterial ischemia in brain by blocking the blood supply of the cerebral artery. The skin was sutured and was sterilized with tincture of iodine.”
Neurologic deficit scores were assessed for the above experimental animals according to the following procedure before the beginning of experiment and 24 hours, 1 day, 3 days, 7 days, 14 days, 28 days, 56 days, and 112 days after the beginning of experiment; Score rules: see Zea Longer score and NSS score, full score of 10; […]

Residues, ends and D or L forms follow the SMILES beside them.

For the molecule `CC(C)CC(NC(=O)C(CCC(N)=O)NC(=O)C(NC(=O)C(CO)NC(=O)C(Cc1c[nH]cn1)NC(=O)C(N)C(C)C)C(C)C)C(=O)NC(Cc1ccc(O)cc1)C(=O)O` (stereo not shown) [compound of formula (III)] (H-VHSVQLY-OH; configuration not given here), the weight result in assay [1] (I1.5R+1 week+dosing for 4 weeks, vs model group without compound) is reported as “gradually increased weight”; in assay [1] (I1.5R+2 weeks+dosing for 4 weeks, vs model group, weight data said not demonstrative (groups differed before dosing)) it was “gradually increased weight”. Moreover, the “neuroethology score (neurologic deficit score)” value in assay [2] (I1.5R+1 week+dosing for 4 weeks, statistically significant in 2nd, 3rd, 4th, 5th and 7th week after operation) is “gradually declined neuroethology score”. Also, in assay [2] (I1.5R+2 weeks+dosing for 4 weeks, statistically significant at fifth week after operation), the neurological scores result was “declined from the beginning of the administration”.

Source of the values: patent US10647745B2, “Compound for treating sequelae of ischemic cerebral stroke” (priority 2015, dated 2020).
